In publication PMC8344021, “Discovery of Small Molecule Bak Activator for Lung Cancer Therapy” (Theranostics, 2021):

Legend:
human Bak protein = target: T1, human Bak protein (Homo sapiens, UniProt Q16611); test: Competitive fluorescence polarization (FP) assay with fluorescent Bak BH3 peptide; type: binding; conditions: purified human Bak protein, fluorescent Bak BH3 domain peptide; mean ± SD, n = 3
T1 construct: purchased Creative Biomart BAK1-26166TH
Excerpt: To confirm the binding of BKA-073 with Bak, we first conducted a competitive fluorescence polarization (FP) assay using purified human Bak protein, fluorescent Bak BH3 domain peptide, and BKA-073 as described, [37]-[40]. […] There are multiple amino acid differences in the BH3 domains between Bak and other Bcl2 family members, which helps to explain why BKA-073 only binds to Bak but not to other Bcl2 family members (i.e. Bax, Bcl2, Bcl-XL, Bcl-w and Mcl-1). In addition to the FP assay, isothermal titration calorimetry (ITC) was also employed to measure Bak/BKA-073 binding. […] In addition to human Bak/BKA-073 binding, we measured mouse Bak/BKA-073 binding using ITC.
(1 x 10^5 cells) was transferred to a 5 ml culture tube, followed by the addition of 5 μl of FITC Annexin V and 5 μl propidium iodide (PI). […] Samples were analyzed by flow cytometry (BD FACSCantoTMII, BD Biosciences, San Jose, CA). ∆% cell death was calculated with the formula: (% cell death treated - % cell death non-treated) as described […]
Fluorescence polarization (FP) assay
Fluorescence polarization assay was carried out as described previously. […] The FP values (in millipolarization units) were measured using a fluorescence microplate reader at 485/530 nm (Gemini XPS, Molecular Devices). Data analysis and inhibit ory constant (Ki) value was determined by GraphPad prism software as described. […]

Bak-/- A549 xenografts = test: Bak-/- A549 xenografts, tumor growth; type: in vivo, Nu/Nu nude mice; conditions: 12.5mg/kg/d i.p., 28 days
Method: Six-week-old female Nu/Nu nude mice were purchased from Envigo (Indianapolis, IN) and housed under pathogen-free conditions in microisolator cages. The animal propagation protocol was approved by the Emory Institutional Animal Care and Use Committee (IACUC) and the Emory Animal Ethics Committee. 3×10^6 lung cancer cells were injected into subcutaneous tissue in the flank region of nude mice. The tumors were allowed to grow to an average volume of 150~200 mm^3 prior to initiation of therapy as previously described, [29]. Patient-derived xenografts (PDXs, TKO-002 and TKO-005) were established as part of an IRB-approved phase II co-clinical trial of arsenic trioxide in patients with relapsed SCLC who had failed standard platinum-based chemotherapy. Tumor samples were obtained by image-guided biopsy and were directly implanted into Nu/Nu nude mice without intervening propagation in plastic culture plates. Direct serial propagation of growing tumor occurred for up to 5 generations. The animal propagation protocol was approved by the Emory IACUC and the Emory Animal Ethics Committee. Mice with SCLC and NSCLC xenografts or PDXs were treated with BKA-073 intraperitoneally (i.p.) or venetoclax orally as indicated. During treatment, tumor volume (V) was measured by caliper measurements once every two days as described previously. Mice were euthanized by CO2 inhalation at the end of treatment. […]

T1 sequence (Q16611 whole entry, the tested form may be a part): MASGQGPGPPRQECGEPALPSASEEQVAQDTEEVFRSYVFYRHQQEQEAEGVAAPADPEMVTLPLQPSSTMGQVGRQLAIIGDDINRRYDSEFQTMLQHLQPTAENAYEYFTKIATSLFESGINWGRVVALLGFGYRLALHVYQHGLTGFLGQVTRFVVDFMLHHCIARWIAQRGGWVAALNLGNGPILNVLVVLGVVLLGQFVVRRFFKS

In the case of COc1ccc2nc3ccccc3c(NCCNCC(C)O)c2c1 (centres unmarked) [BKA-073], the Ki (human Bak protein) is reported as 72.3 ± 5.96 nM and the tumor growth (Bak-/- A549 xenografts) is reported as “no inhibitory effect”.
